Legend:
Assay type in all cases: ADME
Liver microsomes [1] = test: Metabolic stability in human liver microsome at 10 uM after 15 mins in the absence of NADPH by LC-MS analysis; conditions: 0.25 h
Liver microsomes [2] = test: Metabolic stability in heat inactivated human liver microsome at 10 uM after 15 mins in the presence of NADPH by LC-MS analysis; conditions: 0.25 h
Liver microsomes [3] = test: Metabolic stability in human liver microsome at 10 uM in the presence of NADPH assessed as level of metabolites after 5 mins by LC-MS analysis
Liver microsomes [4] = test: Metabolic stability in human liver microsome at 10 uM in the presence of NADPH assessed as level of metabolites after 1 mins by LC-MS analysis

C=C/C=C\[C@H](C)[C@H](OC(N)=O)[C@@H](C)[C@H](O)[C@@H](C)C/C(C)=C\[C@H](C)[C@@H](O)[C@@H](C)/C=C\[C@@H](O)C[C@@H]1OC(=O)[C@H](C)[C@@H](O)[C@H]1C [DISERMOLIDE]
Stability (Liver microsomes [1]): Stable | Stability (Liver microsomes [2]): Stable | Stability (Liver microsomes [3]): Unstable | Stability (Liver microsomes [4]): Unstable

Reference: ChEMBL document CHEMBL1154299, “Human liver microsomal metabolism of (+)-discodermolide” (J Nat Prod, 2009)
